One test has as its target CDK5/p25 (Homo sapiens, UniProt Q00535). The test can be described thus: CDK5/p25 kinase assay (histone H1).
A further test deals with PIM 1 (Homo sapiens, UniProt P11309). The experiment in a line: PIM1 kinase assay (histone H1). It is filed as biochemical. Particulars: 15 μM ATP; cell '− (x)' = no inhibitory activity detected, x = highest concentration tested; read-out: IC50 PIM 1.
For the next test, the target named is GSK-3α/ß. The experiment in a line: GSK-3α/β kinase assay (GS-1 substrate). As to conditions: 15 μM ATP; cell '− (x)' = no inhibitory activity detected, x = highest concentration tested. Format: biochemical, porcine. The source says:
GSK-3 α/β was purified from porcine brain by affinity chromatography on immobilized axin [39].

The subject of test [1] is human neuroblastoma SH-SY5Y cells. The experiment in a line: SH-SY5Y cell survival, MTS reduction assay. It is filed as cell-based. As to conditions: MTS assay, dose-response after 24 h and 48 h exposure, cell '− (x)' = no activity, x = highest concentration tested, read-out: IC50 SH-SY5Y cell survival. On the procedure: We next tested the effects of each lamellarin, at an initial 10 μM concentration, on the survival of the neuroblastoma SH-SY5Y cell line after 48 h exposure (Table 2). Cell survival was estimated by the MTS reduction assay.
SH-SY5Y human neuroblastoma cells were grown in DMEM supplemented with 2mM L-glutamine (Invitrogen, Cergy Pontoise, France), plus antibiotics (penicillin-streptomycin) and a 10% volume of fetal calf serum (FCS) (Invitrogen). Cell viability was determined by means of the MTS (3- (4,5-dimethylthiazol-2-yl)-5- (3-carboxymethoxyphenyl)-2- (4-sulfophenyl)-2H -tetrazolium) reduction method as previously described. Cell death was (also) assayed by LDH release. Lactate dehydrogenase is a stable cytosolic enzyme that is released upon cell lysis. SH-SY5Y cells were also subjected to caspase activity assays. These are based on cleavage of a synthetic caspase substrate DEVD (MP Biomedicals, 199423), a subtrate of active caspase 3/6/7. The assay was carried out according to manufacturer’s instructions.
On the technique in general: Tetrazolium assays rely on reduction of a dye to a coloured formazan, in cell work by metabolically active cells.

The next test deals with CK1. The experiment in a line: CK1 kinase assay (CKS peptide). Format: biochemical, porcine. On the procedure:
CK1 was purified from porcine brain by affinity chromatography on immobilized axin fragment. The mixture of native CK1 isoforms (essentially CK1δ and CK1ɛ) was assayed in three-fold diluted buffer C, using 25 μM CKS peptide, a CK1 selective substrate (RRKHAAIGpSAYSITA, synthesized by Millegen (Labège, France). Assays were performed for 30 min. at 30°C, as described for GSK-3.

The target in another test is CDK1/cyclin B. The test can be described thus: CDK1/cyclin B kinase assay (histone H1, P81 phosphocellulose). Format: biochemical, starfish (Marthasterias glacialis). As to conditions: 15 μM ATP; cell '− (x)' = no inhibitory activity detected, x = highest concentration tested. The protocol: ATP (3,000 Ci/mmol; 1 mCi/ml) in a final volume of 30 μl. […] The wet filters were counted in the presence of 1 ml ACS (Amersham) scintillation fluid.

The next test concerns the target DYRK1A (Rattus norvegicus, UniProt Q63470). The test can be described thus: DYRK1A kinase assay (myelin basic protein).
In the next test the test system is HeLa cells. More on the design: method as in PMID 11975488. Particulars: provided for comparison, ref [18]; cited from earlier work.
Setting [2] is: 15 μM ATP, cell '− (x)' = no inhibitory activity detected, x = highest concentration tested.

A word on the IC50: it is the concentration that gives 50% inhibition.

Like-named read-outs stand apart in the source and are kept apart here.

PIM 1, sequence (P11309 whole entry, species assumed): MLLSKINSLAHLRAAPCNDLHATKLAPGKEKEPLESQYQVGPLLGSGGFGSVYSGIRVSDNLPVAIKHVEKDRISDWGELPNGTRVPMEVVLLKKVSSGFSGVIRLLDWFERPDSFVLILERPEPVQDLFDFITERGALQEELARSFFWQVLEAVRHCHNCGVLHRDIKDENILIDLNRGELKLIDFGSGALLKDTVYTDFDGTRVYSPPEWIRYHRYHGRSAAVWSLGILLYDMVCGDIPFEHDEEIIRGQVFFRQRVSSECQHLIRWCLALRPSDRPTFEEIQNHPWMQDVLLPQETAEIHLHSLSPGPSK
CDK5/p25, sequence (Q00535 whole entry): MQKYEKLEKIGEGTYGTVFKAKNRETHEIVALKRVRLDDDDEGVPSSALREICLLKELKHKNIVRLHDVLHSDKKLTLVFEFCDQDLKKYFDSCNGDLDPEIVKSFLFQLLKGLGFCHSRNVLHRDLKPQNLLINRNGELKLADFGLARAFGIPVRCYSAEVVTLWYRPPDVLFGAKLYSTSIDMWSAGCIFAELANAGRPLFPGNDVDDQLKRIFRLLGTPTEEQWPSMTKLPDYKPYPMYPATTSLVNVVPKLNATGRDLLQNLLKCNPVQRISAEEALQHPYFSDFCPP
CDK5/p25, sequence (Q15078 99-307 partner limits assumed): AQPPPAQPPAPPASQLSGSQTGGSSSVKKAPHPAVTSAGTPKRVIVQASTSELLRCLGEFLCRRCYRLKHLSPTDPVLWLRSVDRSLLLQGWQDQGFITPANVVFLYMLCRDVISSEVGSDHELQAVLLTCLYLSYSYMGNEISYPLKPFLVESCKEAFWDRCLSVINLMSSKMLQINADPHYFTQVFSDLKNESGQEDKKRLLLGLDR
Procedure for CDK5/p25: (§1) Blank values were subtracted and activities calculated as pmoles of phosphate incorporated during a 30 min. incubation. The activities were expressed in % of the maximal activity, i.e. in the absence of inhibitors. Controls were performed with appropriate dilutions of dimethylsulfoxide. Unless otherwise stated, the P81 phosphocellulose assay was used.
Its activity was assayed with histone H1 in buffer C as described for CDK1/cyclin B.
Procedure for DYRK1A: as §1
DYRK1A was expressed as a GST fusion protein in E. coli (vector kindly provided by Dr. W. Becker, Institute for Pharmacology and Toxicology, Aachen, Germany) and affinity purified on glutathione-agarose. […] ATP in a final volume of 30 μl. After 30 min incubation at 30°C, 25 μl aliquots of supernatant were treated as described above.

For `COc1ccc(-c2c3n(c4c(=O)oc5cc(O)c(OC)cc5c24)CCc2cc(O)c(OC)cc2-3)cc1O` [Compound 7, lamellarin L], the IC50 against CDK5/p25 was 100 nM; on PIM 1 it was 250 nM; at GSK-3α/ß, 41 nM; in test [1], 700 nM; at CK1 (setting [2]), > 10000 nM; at CDK1/cyclin B, 380 nM. At DYRK1A, the IC50 was found to be 140 nM.

In the case of `COc1cc(-c2c3n(c4c(=O)oc5cc(O)c(OC)cc5c24)CCc2cc(O)c(OC)cc2-3)ccc1O` [Compound 3, di-H-lamellarin D], the half-inhibitory concentration (IC50) was 110 nM against CDK5/p25; 200 nM at PIM 1; 900 nM at GSK-3α/ß; 410 nM in test [1]; 5900 nM against CK1 (setting [2]); 1850 nM at CDK1/cyclin B. In addition, half-maximal inhibition at DYRK1A (IC50) was put at 500 nM.

With `COc1cc2c(cc1O)oc(=O)c1c2c(-c2ccc(O)cc2)c2c3cc(OC)c(O)cc3ccn21` [Compound 12, lamellarin 6], the IC50 is 40 nM in the test on HeLa cells; 30 nM at CDK5/p25; 330 nM on PIM 1; 130 nM at GSK-3α/ß; 110 nM in test [1]; 800 nM against CK1 (setting [2]). In addition, the IC50 turned out to be 100 nM on CDK1/cyclin B and 90 nM against DYRK1A.

Take `COc1cc(-c2c3n(c4c(=O)oc5cc(O)c(OC)cc5c24)CCc2c-3cc(OC)c(OC)c2O)ccc1O` [Compound 22, lamellarin K]: the IC50 is > 10000 nM on CDK5/p25; 600 nM at PIM 1; > 10000 nM against GSK-3α/ß; > 30000 nM in test [1]; 6000 nM on CK1 (setting [2]); > 10000 nM at CDK1/cyclin B. Further, at DYRK1A, the IC50 was > 10000 nM.

For the molecule `COc1ccc2oc(=O)c3c(c(-c4ccc(O)c(OC)c4)c4c5cc(OC)c(O)cc5ccn43)c2c1` [Compound 10, lamellarin 4], the IC50 with HeLa cells is 850 nM; at CDK5/p25, 600 nM; on PIM 1 it was 50 nM; on GSK-3α/ß it was 50 nM; in test [1] it was 790 nM; against CK1 (setting [2]) it was 1300 nM. For the same molecule, the IC50 against CDK1/cyclin B was found to be 2000 nM; against DYRK1A, 80 nM.

As to `O=c1oc2cc(O)c(O)cc2c2c(-c3ccc(O)c(O)c3)c3n(c12)CCc1cc(O)c(O)cc1-3` [Compound 5, di-H-lamellarin H], the IC50 is > 10000 nM against CDK5/p25; > 10000 nM on PIM 1; 670 nM against GSK-3α/ß; 2550 nM in test [1]; 5200 nM on CK1 (setting [2]); > 10000 nM against CDK1/cyclin B. Also, the IC50 against DYRK1A is > 10000 nM.

Take `COc1cccc(-c2c3c4cc(OC)c(O)cc4oc(=O)c3n3ccc4cc(O)c(OC)cc4c23)c1` [Compound 13, lamellarin 7]: the IC50 with HeLa cells was 70 nM; at CDK5/p25, 2100 nM; at PIM 1, > 10000 nM; against GSK-3α/ß it was 2100 nM; in test [1], 140 nM; against CK1 (setting [2]), > 10000 nM. In addition, the IC50 against CDK1/cyclin B was 4300 nM; against DYRK1A it was > 10000 nM.

On to `O=c1oc2ccccc2c2c(-c3ccc(O)c(O)c3)c3c4cc(O)c(O)cc4ccn3c12` [Compound 15, lamellarin 9], for which the IC50 with HeLa cells was 1100 nM; against CDK5/p25 it was > 10000 nM; at PIM 1, > 10000 nM; at GSK-3α/ß, > 10000 nM; in test [1], > 10000 nM; at CK1 (setting [2]) it was > 10000 nM. Further, the IC50 against CDK1/cyclin B and against DYRK1A was > 10000 nM throughout.

With `COc1cc(-c2c3c4ccc(O)cc4oc(=O)c3n3ccc4cc(O)c(OC)cc4c23)ccc1O` [Compound 9, lamellarin 3], the IC50 in the test on HeLa cells is 40 nM; against CDK5/p25 it was 600 nM; on PIM 1 it was 150 nM; against GSK-3α/ß, 580 nM; in test [1], 56 nM; on CK1 (setting [2]), 410 nM. Also, the values for the IC50 against CDK1/cyclin B and at DYRK1A were 530 nM and 60 nM, respectively.

With `COc1cc(-c2c3c4cc(OC)c(O)cc4oc(=O)c3n3ccc4cc(O)c(OC)cc4c23)ccc1O` [Compound 1, lamellarin D], the IC50 with HeLa cells is 11 nM; on CDK5/p25 it was 550 nM; on PIM 1, 100 nM; against GSK-3α/ß it was 300 nM; in test [1], 19 nM; on CK1 it was 13000 nM. Besides, the IC50 against CDK1/cyclin B was determined as 500 nM; against DYRK1A it was 450 nM.

For `COc1ccc(-c2c3c4cc5c(cc4oc(=O)c3n3ccc4cc(OC)c(OC)cc4c23)OCO5)cc1OC` [Compound 17, lamellarin 12], the IC50 was > 100000 nM in the test on HeLa cells; > 10000 nM at CDK5/p25; > 10000 nM at PIM 1; > 10000 nM at GSK-3α/ß; > 10000 nM in test [1]; > 10000 nM at CK1 (setting [2]). The IC50 on CDK1/cyclin B and against DYRK1A was > 10000 nM each time.

`COc1ccc(-c2c3c4ccccc4oc(=O)c3n3ccc4cc(OC)c(OC)cc4c23)cc1OC` [Compound 16, lamellarin 11]: the IC50 in the test on HeLa cells is 5700 nM; against CDK5/p25 it was > 10000 nM; at PIM 1 it was > 10000 nM; at GSK-3α/ß it was > 10000 nM; in test [1], > 10000 nM; at CK1 (setting [2]), > 10000 nM. Further, the IC50 against CDK1/cyclin B and at DYRK1A was > 10000 nM each time.

Take `COc1cc(-c2c3c4ccccc4oc(=O)c3n3ccc4cc(O)c(OC)cc4c23)ccc1O` [Compound 14, lamellarin 8]: the IC50 with HeLa cells is 4000 nM; on CDK5/p25 it was 900 nM; at PIM 1, 700 nM; against GSK-3α/ß it was 2200 nM; in test [1], 2650 nM; on CK1 (setting [2]), > 10000 nM. In addition, the IC50 against CDK1/cyclin B is 5000 nM; against DYRK1A it was 1000 nM.

Consider `COc1cc2c(cc1O)oc(=O)c1c2c(-c2ccc(OC)c(OC)c2)c2c3cc(OC)c(OC)cc3ccn21` [Compound 11, lamellarin 5], for which the IC50 in the test with HeLa cells is 2500 nM; at CDK5/p25, > 10000 nM; at PIM 1 it was 2000 nM; against GSK-3α/ß it was > 10000 nM; in test [1], 8000 nM; against CK1 (setting [2]), > 10000 nM. For the same molecule, the IC50 against CDK1/cyclin B and at DYRK1A was > 10000 nM each time.

On to `COc1cc(-c2c3c4cc(OC)c(O)cc4oc(=O)c3n3ccc4cc(OC)c(OC)cc4c23)ccc1O` [Compound 2, lamellarin α], for which the IC50 at CDK5/p25 was > 10000 nM; on PIM 1 it was 590 nM; against GSK-3α/ß, 1400 nM; in test [1] it was > 10000 nM; against CK1 (setting [2]), 7900 nM; against CDK1/cyclin B it was 8000 nM. Moreover, the IC50 against DYRK1A came to 5000 nM.

As for `O=c1oc2cc(O)c(O)cc2c2c(-c3ccc(O)c(O)c3)c3c4cc(O)c(O)cc4ccn3c12` [Compound 4, lamellarin H], the IC50 in the test on HeLa cells is > 100000 nM; on CDK5/p25, > 10000 nM; at PIM 1, > 10000 nM; against GSK-3α/ß, 9500 nM; in test [1], 450 nM; at CK1 (setting [2]), 5300 nM. For the same molecule, the IC50 against CDK1/cyclin B and at DYRK1A was > 10000 nM throughout.

These data come from paper PMC2630805, “Anticancer Alkaloid Lamellarins Inhibit Protein Kinases” (Marine Drugs, 2008).
